Values quoted from earlier work, collected in patent US11622956B1, “Compound and method for treating diseases and disorders” (priority 2019, dated 2023).

Tests used:
ataxia = settings: high levels of hemp-derived CBD
[1] = oral
static ataxia = settings: dogs, IV
joint pain = settings: dogs

Compound: C=C(C)[C@@H]1CCC(C)=C[C@H]1c1c(O)cc(CCCCC)cc1O [CBD, Cannabidiol]
- dogs with ataxia (ataxia): 2 of the 10
- fraction of orally administered CBD ultimately absorbed, at best [1]: 15-20%
- fraction of orally administered CBD ultimately absorbed, on average [1]: 5-10%

Compound: CCCCCc1cc(O)c2c(c1)OC(C)(C)[C@@H]1CCC(C)=C[C@@H]21 [THC, tetrahydrocannabinol]
- dose producing static ataxia (static ataxia): > 0.5 mg/kg

Compound: COc1cccc(C2(O)CCCCC2CN(C)C)c1 (centres unmarked) [tramadol, Tramadol]
- peak vertical force or vertical impulse versus placebo (joint pain): no improvement
